The values that follow come from US10221138B2, “Biaryl derivatives as GPR120 agonists” (LG CHEM, LTD., priority 2013, dated 2019).

What is called EC50 is the concentration at which the effect is half-maximal.

This assay concerns the target T1, hGPR120 (Homo sapiens, UniProt Q5NUL3).
T1 construct: expressed in transfected cells; host or cells: CHO-K1
T1 sequence (Q5NUL3 1-361): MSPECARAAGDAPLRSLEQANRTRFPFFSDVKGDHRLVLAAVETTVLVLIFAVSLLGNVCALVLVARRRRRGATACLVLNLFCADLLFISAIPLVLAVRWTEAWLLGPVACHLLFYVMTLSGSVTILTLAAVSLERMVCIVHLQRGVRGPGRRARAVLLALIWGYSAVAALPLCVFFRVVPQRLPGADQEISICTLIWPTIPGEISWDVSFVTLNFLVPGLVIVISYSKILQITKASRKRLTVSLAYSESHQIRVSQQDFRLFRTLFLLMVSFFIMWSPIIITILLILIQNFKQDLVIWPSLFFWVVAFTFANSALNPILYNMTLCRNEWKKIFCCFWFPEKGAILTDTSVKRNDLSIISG
The assay is described as follows: Measurement of activity of GPR120 agonist (cell-based calcium fluorescence assay). As to conditions: CHO-K1 cells expressing Ga16 and hGPR120, Calcium 5 dye fluorescence; activity class; read-out: EC50. How it is done:
CHO-K1 cells expressing Ga16 and hGPR120 were dispensed into each well of a 96-well plate (3×10^4 cells/100 μl/well) and then incubated in 5% CO2, 37° C. incubator for 18 hours. Each well was treated with 100 μl of Calcium 5 dye (Molecular Devices) solution including 2% DMSO and then incubated in 5% CO2, 37° C. incubator for 1 hour. Serially diluted GPR120 agonists were prepared to a final concentration of 0.5% DMSO in a 96-well plate.
Fluorescence increased by the serially diluted GPR120 agonists is calculated as a relative percent (%) value based on the fluorescence represented by the treatment of 1% DMSO only. […] The calculation of measurement was carried out by using statistical software (Prizm).
Activity is denoted based on the following criteria: […]
Take `O=C(O)CCCOc1ccc(-c2cccc(Oc3ccccc3)n2)cc1` [Example 1, 4-[4-(6-phenoxy-2-pyridyl)phenoxy]butyric acid]: the EC50 was in the range of 200 to 2000 nM.
Regarding `CC(C)Sc1cccc(-c2cc(F)c(OCCCC(=O)O)c(F)c2)n1` [Example 2, 4-[2,6-difluoro-4-(6-isopropylsulfanyl-2-pyridyl)phenoxy]butyric acid], the EC50 was < 200 nM.
Regarding `O=C(O)CCCOc1c(F)cc(-c2cccc(Oc3ccccc3)n2)cc1F` [Example 3, 4-[2,6-difluoro-4-(6-phenoxy-2-pyridyl)phenoxy]butyric acid], the EC50 is < 200 nM.
`CC(C)Sc1cccc(-c2ccc(OCCCC(=O)O)c(Cl)c2)n1` [Example 4, 4-[2-chloro-4-(6-isopropylsulfanyl-2-pyridyl)phenoxy]butyric acid]: the EC50 was 200 to 2000 nM.
`CC(C)Sc1cccc(-c2ccc(OCCCC(=O)O)c(F)c2)n1` [Example 5, 4-[2-fluoro-4-(6-isopropylsulfanyl-2-pyridyl)phenoxy]butyric acid]: the EC50 was in the range of 200 to 2000 nM.
Next, `O=C(O)CCCOc1c(F)cc(-c2cccc(SC3CCCC3)n2)cc1F` [Example 6, 4-[4-(6-cyclopentylsulfanyl-2-pyridyl)-2,6-difluoro-phenoxy]butyric acid]: < 200 nM; `COc1cc(-c2cccnc2SC2CCC2)ccc1OCCCC(=O)O` [Example 7, 4-[4-(2-cyclobutylsulfanyl-pyridin-3-yl)-2-methoxy-phenoxy]-butyric acid]: 2000 to 20000 nM; `CC(C)Sc1cc(-c2cc(F)c(OCCCC(=O)O)c(F)c2)ccn1` [Example 8, 4-[2,6-difluoro-4-(2-isopropylsulfanyl-4-pyridyl)phenoxy]butyric acid]: > 20000 nM.
In the case of `Cc1cc(-c2cccnc2SC2CCC2)cc(C)c1OCCCC(=O)O` [Example 10, 4-[4-(2-cyclobutylsulfanyl-pyridin-3-yl)-2,6-dimethyl-phenoxy]-butyric acid] it was < 200 nM; in that of `O=C(O)CCCOc1c(F)cc(-c2cccc(N3CCCC3)n2)cc1F` [Example 12, 4-[2,6-difluoro-4-(6-pyrrolidin-1-yl-2-pyridyl)phenoxy]butyric acid], < 200 nM.
Next, `CCC(C)Sc1ncccc1-c1cc(F)c(OCCCC(=O)O)c(F)c1` (centres unmarked) [Example 13, 4-[4-(2-sec-butylsulfanyl-pyridin-3-yl)-2,6-difluoro-phenoxy]-butyric acid]: 200 to 2000 nM.
On to `O=C(O)CCCOc1ccc(-c2cccc(OC3CCCC3)c2)c(F)c1F` [Example 14, 4-[4-[3-(cyclopentoxy)phenyl]-2,3-difluoro-phenoxy]butyric acid], for which the EC50 was 200 to 2000 nM.
Regarding `O=C(O)CCCOc1c(F)cc(-c2cccc(N3CCCCC3)n2)cc1F` [Example 15, 4-[2,6-difluoro-4-[6-(1-piperidyl)-2-pyridyl]phenoxy]butyric acid], the EC50 fell in the range of 200 to 2000 nM.
Next, `O=C(O)CCCOc1c(F)cc(-c2cccc(Nc3ccccc3)n2)cc1F` [Example 16, 4-[4-(6-anilino-2-pyridyl)-2,6-difluoro-phenoxy]butyric acid]: 200 to 2000 nM.
For the molecule `CN(c1ccccc1)c1cccc(-c2cc(F)c(OCCCC(=O)O)c(F)c2)n1` [Example 17, 4-[2,6-difluoro-4-[6-(N-methylanilino)-2-pyridyl]phenoxy]butyric acid], the EC50 is 200 to 2000 nM.
In the case of `O=C(O)CCCOc1c(F)cc(-c2cccc(SC3CCC3)n2)cc1F` [Example 20, 4-[4-(6-cyclobutylsulfanyl-2-pyridyl)-2,6-difluoro-phenoxy]butyric acid] it was < 200 nM.
As to `CCCSc1cccc(-c2cc(F)c(OCCCC(=O)O)c(F)c2)n1` [Example 21, 4-[2,6-difluoro-4-(6-propylsulfanyl-2-pyridyl)phenoxy]butyric acid], the EC50 is < 200 nM.
Next, `CCCOc1cccc(-c2cc(F)c(OCCCC(=O)O)c(F)c2)n1` [Example 23, 4-[2,6-difluoro-4-(6-propoxy-2-pyridyl)phenoxy]butyric acid]: < 200 nM.
In the case of `O=C(O)CCCOc1c(F)cc(-c2cccc(OCC3CC3)n2)cc1F` [Example 24, 4-[4-[6-(cyclopropylmethoxy)-2-pyridyl]-2,6-difluoro-phenoxy]butyric acid], the half-maximal effective concentration (EC50) is < 200 nM.
Consider `O=C(O)CCCOc1c(F)cc(-c2cccc(OC3CCC3)n2)cc1F` [Example 25, 4-[4-[6-(cyclobutoxy)-2-pyridyl]-2,6-difluoro-phenoxy]butyric acid], for which the EC50 was < 200 nM.
Next, `Cc1cc(-c2cccc(OC3CCC3)n2)ccc1OCCCC(=O)O` [Example 26, 4-[4-[6-(cyclobutoxy)-2-pyridyl]-2-methyl-phenoxy]butyric acid]: < 200 nM.
`O=C(O)CCCOc1ccc(-c2cccc(OC3CCC3)n2)cc1C(F)(F)F` [Example 27, 4-[4-[6-(cyclobutoxy)-2-pyridyl]-2-(trifluoromethyl)phenoxy]butyric acid]: the EC50 was < 200 nM.
Next, `CC(CCC(=O)O)Oc1c(F)cc(-c2cccnc2SC2CCC2)cc1F` (centres unmarked) [Example 28, 4-[4-(2-cyclobutylsulfanyl-3-pyridyl)-2,6-difluoro-phenoxy]pentanoic acid]: < 200 nM; `CC(CCC(=O)O)Oc1c(F)cc(-c2cccc(OC3CCC3)n2)cc1F` (centres unmarked) [Example 29, 4-[4-[6-(cyclobutoxy)-2-pyridyl]-2,6-difluoro-phenoxy]pentanoic acid]: < 200 nM.
With `CC(CCC(=O)O)Oc1ccc(-c2cccnc2SC2CCC2)cn1` (centres unmarked) [Example 30, 4-[[5-(2-cyclobutylsulfanyl-3-pyridyl)-2-pyridyl]oxy]pentanoic acid], the EC50 was > 20000 nM.
Turning to `CC(C)CCSc1ncccc1-c1cc(F)c(OCCCC(=O)O)c(F)c1` [Example 31, 4-{2,6-difluoro-4-[2-(3-methyl-butylsulfanyl)-pyridin-3-yl]-phenoxy}-butyric acid], the EC50 was 200 to 2000 nM.
As for `O=C(O)CCCOc1c(F)cc(-c2cccnc2OCCF)cc1F` [Example 32, 4-{2,6-difluoro-4-[2-(2-fluoro-ethoxy)-pyridin-3-yl]-phenoxy}-butyric acid], the EC50 is > 20000 nM.
Next, `O=C(O)CC1(COc2c(F)cc(-c3cccnc3SC3CCC3)cc2F)CC1` [Example 33, 2-[1-[[4-(2-cyclobutylsulfanyl-3-pyridyl)-2,6-difluoro-phenoxy]methyl]cyclopropyl]acetic acid]: 200 to 2000 nM; `O=C(O)CCCOc1ccc(-c2cccc(OC3CCC3)c2)nc1` [Example 35, 4-[[6-[3-(cyclobutoxy)phenyl]-3-pyridyl]oxy]butyric acid]: 200 to 2000 nM.
Next, `O=C(O)CCCOc1ccc(-c2cccc(OC3CCCC3)c2)nc1` [Example 36, 4-[[6-[3-(cyclopentoxy)phenyl]-3-pyridyl]oxy]butyric acid]: 200 to 2000 nM.
Regarding `O=C(O)CCCOc1ccc(-c2ccccc2Oc2ccccc2)cc1` [Example 37, 4-(2′-phenoxy-biphenyl-4-yloxy)-butyric acid], the EC50 was < 200 nM.
With `CC(C)Sc1ncccc1-c1ccc(OCCCC(=O)O)cc1` [Example 38, 4-[4-(2-isopropylsulfanyl-pyridin-3-yl)-phenoxy]-butyric acid], the EC50 was in the range of 200 to 2000 nM.
Regarding `O=C(O)CCCOc1c(F)cc(-c2ccccc2Oc2ccccc2)cc1F` [Example 39, 4-(3,5-difluoro-2′-phenoxy-biphenyl-4-yloxy)-butyric acid], the EC50 is < 200 nM.
Next, `CC(C)Sc1ncccc1-c1cc(F)c(OCCCC(=O)O)c(F)c1` [Example 41, 4-[2,6-difluoro-4-(2-isopropylsulfanyl-pyridin-3-yl)-phenoxy]-butyric acid]: 200 to 2000 nM; `CC(C)Oc1ncccc1-c1cc(F)c(OCCCC(=O)O)c(F)c1` [Example 43, 4-[2,6-difluoro-4-(2-isopropoxy-pyridin-3-yl)-phenoxy]-butyric acid]: 200 to 2000 nM.
Next, `O=C(O)CCCOc1c(F)cc(-c2cccnc2OC2CCCC2)cc1F` [Example 44, 4-[4-(2-cyclopentyloxy-pyridin-3-yl)-2,6-difluoro-phenoxy]-butyric acid]: < 200 nM.
Take `O=C(O)CCCOc1c(F)cc(-c2cccnc2OCC2CC2)cc1F` [Example 46, 4-[4-(2-cyclopropylmethoxy-pyridin-3-yl)-2,6-difluoro-phenoxy]-butyric acid]: the EC50 fell in the range of 200 to 2000 nM.
In the case of `O=C(O)CCCOc1c(F)cc(-c2cccnc2SCC2CC2)cc1F` [Example 47, 4-[4-(2-cyclopropylmethylsulfanyl-pyridin-3-yl)-2,6-difluoro-phenoxy]-butyric acid] it was < 200 nM; in that of `O=C(O)CCCOc1ccc(-c2cccnc2SC2CCC2)cc1` [Example 48, 4-[4-(2-cyclobutylsulfanyl-pyridin-3-yl)-phenoxy]-butyric acid], < 200 nM.
Next, `O=C(O)CCCOc1ccc(-c2cccnc2SCC2CC2)cc1` [Example 49, 4-[4-(2-cyclopropylmethylsulfanyl-pyridin-3-yl)-phenoxy]-butyric acid]: 200 to 2000 nM.
Turning to `CCCSc1ncccc1-c1ccc(OCCCC(=O)O)cc1` [Example 51, 4-[4-(2-propylsulfanyl-pyridin-3-yl)-phenoxy]-butyric acid], the EC50 is < 200 nM.
